Assay results from paper PMC11156913, “New sulfonamide-based glycosides incorporated 1,2,3-triazole as cytotoxic agents through VEGFR-2 and carbonic anhydrase inhibitory activity” (Scientific Reports, 2024).
“And” between values parts separate entries of the source, which are not always exact repeats. Equal values may be shown once.

Assays:
[1] = system: liver HepG-2 cancer cell line; assay: In vitro cytotoxic activity (MTT assay), HepG-2; conditions: for IC50: Homo sapiens, HepG2, read-out: IC50 (mean ± SD) HepG-2
Source text: (§1) The supplemental file contained extra details.

[2] = system: breast MCF-7 cancer cell line; assay: In vitro cytotoxic activity (MTT assay), MCF-7; type: cell-based, human; conditions: for inhibition at 100 µM / IC50: Homo sapiens, MCF7; for inhibition at 100 µM: 48 h, read-out: % inhibition ± SD MCF-7; for IC50: MCF-7 cells, MTT, read-out: IC50 (mean ± SD) MCF-7
Source text: as §1

[3] = system: colorectal HCT-116 cancer cell line; assay: In vitro cytotoxic activity (MTT assay), HCT-116; type: cell-based, human; conditions: for inhibition at 100 µM / IC50: Homo sapiens; for inhibition at 100 µM: HCT-116, 48 h, read-out: % inhibition ± SD HCT-116; for IC50: HCT-116 cells, MTT, read-out: IC50 (mean ± SD) HCT-116
Source text: as §1

[4] = system: retinal pigment epithelial normal RPE-1 cell line; assay: Cytotoxic activity (MTT assay) against normal cell line RPE-1; type: cell-based; conditions: Homo sapiens, normal RPE-1 cells, read-out: IC50 (mean ± SD) RPE-1
Source text: Furthermore, the MTT assay was utilized to estimate the cytotoxic activity of the extremely potent derivatives 4, 7 and 9 against the normal cell line RPE-1, with the aim of examining their safety profiles (Table 1). […] They could therefore be thought of as safe cytotoxic agents.
as §1

[5] = molecular target: VEGFR-2 (Homo sapiens, UniProt P35968); assay: In vitro inhibitory assessment against VEGFR-2 (ELISA, MCF-7 cell homogenates); type: cell-based; conditions: read-out: IC50 (mean ± SD) VEGFR-2
Sequence of VEGFR-2 (P35968 20-1356): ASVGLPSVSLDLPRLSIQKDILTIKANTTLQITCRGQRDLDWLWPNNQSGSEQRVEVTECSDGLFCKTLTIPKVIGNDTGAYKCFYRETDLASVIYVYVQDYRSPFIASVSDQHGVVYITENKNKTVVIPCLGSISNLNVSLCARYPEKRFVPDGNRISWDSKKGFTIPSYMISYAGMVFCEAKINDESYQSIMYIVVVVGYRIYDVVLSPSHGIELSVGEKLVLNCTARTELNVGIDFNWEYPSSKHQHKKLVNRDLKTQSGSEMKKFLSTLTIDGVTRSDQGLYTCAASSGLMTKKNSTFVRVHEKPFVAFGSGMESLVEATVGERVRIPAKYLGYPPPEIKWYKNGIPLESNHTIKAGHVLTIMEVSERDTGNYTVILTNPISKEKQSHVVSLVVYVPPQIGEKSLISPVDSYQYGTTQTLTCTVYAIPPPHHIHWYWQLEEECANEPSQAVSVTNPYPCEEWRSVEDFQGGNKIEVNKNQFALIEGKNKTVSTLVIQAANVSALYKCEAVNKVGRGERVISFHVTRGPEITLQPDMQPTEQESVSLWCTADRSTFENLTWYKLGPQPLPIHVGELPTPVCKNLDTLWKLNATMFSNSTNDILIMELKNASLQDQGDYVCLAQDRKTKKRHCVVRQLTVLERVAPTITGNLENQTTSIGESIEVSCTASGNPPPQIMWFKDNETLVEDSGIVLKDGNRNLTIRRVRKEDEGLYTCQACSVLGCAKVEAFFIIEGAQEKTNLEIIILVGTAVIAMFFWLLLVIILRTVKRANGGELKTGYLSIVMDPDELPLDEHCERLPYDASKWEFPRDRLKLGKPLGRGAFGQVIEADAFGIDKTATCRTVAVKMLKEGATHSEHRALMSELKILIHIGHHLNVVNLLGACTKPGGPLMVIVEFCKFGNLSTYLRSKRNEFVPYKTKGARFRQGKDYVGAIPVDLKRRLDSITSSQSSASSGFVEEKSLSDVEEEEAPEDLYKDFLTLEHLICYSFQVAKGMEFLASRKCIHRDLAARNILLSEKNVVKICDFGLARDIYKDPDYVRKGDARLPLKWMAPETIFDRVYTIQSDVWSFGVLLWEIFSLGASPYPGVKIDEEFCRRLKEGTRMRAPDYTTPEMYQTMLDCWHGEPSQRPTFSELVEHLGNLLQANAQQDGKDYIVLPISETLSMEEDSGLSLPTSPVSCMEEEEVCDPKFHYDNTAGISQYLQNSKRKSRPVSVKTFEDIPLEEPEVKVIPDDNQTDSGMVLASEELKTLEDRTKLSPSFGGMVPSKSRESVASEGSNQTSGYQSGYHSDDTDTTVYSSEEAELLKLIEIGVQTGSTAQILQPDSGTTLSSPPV
Description: (§2) There was further information in the supplemental file.
The cells were harvested and the homogenates were prepared in saline using a tight pestle homogenizer until complete cell disruption. The kit uses a double-antibody sandwich enzyme-linked immunosorbent assay (ELISA) to determine the level of human VEGFR-2 in samples. A monoclonal antibody for VEGFR-2 was pre-coated onto 96-well plates. The test samples are added to the wells and a biotinylated detection polyclonal antibody from goat specific for VEGFR-2 was added subsequently followed by washing with PBS buffer. Avidin-Biotin-Peroxidase complex was added and the unbound conjugates were washed away with PBS buffer. HRP substrate TMB was used to visualize HRP enzymatic reaction. TMB was catalyzed by HRP to produce a blue color product that changed into yellow after adding acidic stop solution. The density of yellow color is proportional to the human VEGFR-2 amount of the sample captured in the plate. The chroma of color and the concentration of the human VEGFR-2 of the samples were positively correlated and the optical density was determined at 450 nm. The level of human VEGFR-2 in samples was calculated (pg/ml) as duplicate determinations from the standard curve. Percent inhibition was calculated in comparison to control untreated cells.

[6] = molecular target: T1, hCA IX (Homo sapiens, UniProt Q16790); assay: Carbonic anhydrase inhibition, stopped-flow CO2 hydration, hCA IX; type: biochemical; conditions: read-out: IC50 (mean ± SD) Carbonic anhydrase isoforms hCA IX
T1 construct: made in house
Description: as §2
(§3) An applied photophysics stopped-flow instrument was used for assaying the CA-catalyzed CO2 hydration activity. […] The CO2 concentrations ranged from 1.7 to 17 mM for the determination of the kinetic parameters and inhibition constants. For each inhibitor, at least six traces of the initial 5–10% of the reaction were used for determining the initial rate. The uncatalyzed rates were determined in the same manner and subtracted from the total observed rates. Stock solutions of inhibitor (0.1 mM) were prepared in distilled-deionized water, and dilutions up to 0.01 nM were done thereafter with distilled-deionized water. Inhibitor and enzyme solutions were preincubated together for 15 min at room temperature before assay in order to allow for the formation of the E-I complex. The inhibition constants were obtained by nonlinear least-squares methods using PRISM 3, and the Cheng –Prusoff equation, and represent the mean from at least three different determinations. All CA isoforms were recombinant ones obtained in-house.

[7] = molecular target: T2, hCA XII (Homo sapiens, UniProt O43570); assay: Carbonic anhydrase inhibition, stopped-flow CO2 hydration, hCA XII; type: biochemical; conditions: read-out: IC50 (mean ± SD) Carbonic anhydrase isoforms hCA XII
T2 construct: made in house
T2 sequence (O43570 25-354): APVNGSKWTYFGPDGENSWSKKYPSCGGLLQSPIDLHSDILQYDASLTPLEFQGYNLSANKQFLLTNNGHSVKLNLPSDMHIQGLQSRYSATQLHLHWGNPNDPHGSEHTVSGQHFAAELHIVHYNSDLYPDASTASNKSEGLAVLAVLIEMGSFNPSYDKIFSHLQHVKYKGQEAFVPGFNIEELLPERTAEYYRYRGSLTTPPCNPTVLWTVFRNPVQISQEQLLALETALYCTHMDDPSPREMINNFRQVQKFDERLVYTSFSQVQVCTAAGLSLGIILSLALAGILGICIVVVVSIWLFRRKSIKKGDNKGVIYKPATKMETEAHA
Description: as §2, §3

[8] = system: lung A-549 cancer cell line; assay: In vitro cytotoxic activity (MTT assay), A-549; conditions: for inhibition at 100 µM / IC50: Homo sapiens; for inhibition at 100 µM: A549, 48 h, read-out: % inhibition ± SD A-549; for IC50: A549, read-out: IC50 (mean ± SD) A-549
Description: Exponentially, cells were placed in 10^4 cells/ well for 24 h, and then add fresh medium which containing different concentration of the tested sample. Serial two-fold dilution of the tested sample were added using a multichannel pipette. […] Rinse the wells using water until no stain. After that, add 30% glacial acetic acid to all wells with shaking plates on Microplate reader (TECAN, Inc.) to measure the absorbance, using a test wavelength of 490 nm. Besides, compare the treated samples with the control cell.

[9] = system: MCF-7 cells; assay: Cell cycle analysis by flow cytometry (PI); type: cell-based, human; conditions: 21.15 μM, 24 h, 48 h (Table S6 title)
Description: (§4) The cells were further examined through flow cytometry with annexin-V staining (Figs. 5–7).
(§5) The examination of cell cycle analysis and apoptosis was explained[66] with the use of flow cytometry. Benzenesulfonamide-1,2,3-triazole-glycosides 9 was applied to MCF-7 cells for a duration of 24 h, and the cells were then incubated at 37 °C. Further details were included in the supplemental file.
(§6) Cell cycle analysis and apoptosis study were carried out using flow cytometry. MCF-7 cells were seeded at 8×10^4 and incubated at 37°C in 5% CO2 overnight. After treatment with the tested compound 10 for 24 h, cell pellets were collected and centrifuged (300 g, 5 min). For cell cycle analysis cell pellets were fixed with 70% ethanol on ice for 15 min and collected again. The pellets were incubated with propidium iodide (PI) staining solution at room temperature for 1 h and analyzed by a Gallios flow cytometer (Beckman Coulter, Brea, CA, USA). Apoptosis detection was carried out by FITC AnnexinV/PI commercial kit (Becton Dickenson, Franklin Lakes, NJ, USA) following the manufacturer protocol. The samples were analyzed by fluorescence-activated cell sorting (FACS) with a Gallios flow cytometer (Beckman Coulter, Brea, CA, USA) within 1 h after staining. Data were analyzed using Kaluza v 1.2 (Beckman Coulter).

[10] = system: MCF-7 cells; assay: Apoptosis detection, Annexin V-FITC/PI flow cytometry; type: cell-based, human; conditions: 21.15 μM, 24 h
Description: as §4, §5, §6

[11] = system: Bax; assay: Bax level in MCF-7 cells; type: cell-based, human; conditions: 24 h, 21.15 μM
Source text: (§7) Additionally, compound 9 boosted the p53 protein level by 7.4 times in MCF-7 treated cells compared to 125.40 Pg/mL in control cells (Table 3).
(§8) Bax, Bcl-2 and p53 levels in MCF-7 cells were clarified utilising the previously reported approach for the promising benzenesulfonamide-1,2,3-triazole-glycosides 9.
(§9) The levels of the apoptotic marker Bax and anti-apoptotic marker Bcl-2 were estimated using BIO RAD iScript TM One-Step RT-PCR kit with SYBR® Green. The procedure of the used kit was done according to the manufacturer’s instructions.

[12] = system: Bcl-2; assay: Bcl-2 level in MCF-7 cells; type: cell-based, human; conditions: 24 h, 21.15 μM
Source text: as §7, §8, §9

[13] = system: p53; assay: p53 level in MCF-7 cells (ELISA); type: cell-based, human; conditions: 24 h, 21.15 μM
Description: as §7, §8
Human p53 present in MCF-7 cells was determined; using Human p53 ELISA-Kit (CS0070 Sigma) read using spectrophotometer at 450 nm against untreated control cells (negative control) applying the standard protocols of the manufacturers. The samples or standard having human p53 bind to antibodies adsorbed to the microwells. Addition of biotin-conjugated was followed by incubation and addition of dispense of unbound biotin-conjugated streptavidin HRP. Then, the reaction was terminated by adding acid, and the absorbance was measured at 450 nm.

## [N-]=[N+]=Nc1ccc(S(=O)(=O)NC2CCCCC2)cc1 [Compound 4, 4-Azido-N-cyclohexylbenzenesulfonamide]
[1]; 12.5 µM
  percentage cytotoxicity on HepG-2: 85.13±1.65%
[1]; 25 µM
  percentage cytotoxicity on HepG-2: 86.23±0.98%
[1]; 50 µM
  percentage cytotoxicity on HepG-2: 85.67±2.50%
[1]; 100 µM
  percentage cytotoxicity on HepG-2: 87.30±0.91%
[1]
  IC50: 12.5 ± 0.51 µM
[2]; 12.5 µM
  percentage cytotoxicity on MCF-7: 35.03±2.83%
[2]; 25 µM
  percentage cytotoxicity on MCF-7: 58.31±3.30%
[2]; 50 µM
  percentage cytotoxicity on MCF-7: 78.50±0.37%
[2]; 100 µM
  percentage cytotoxicity on MCF-7: 91.20±0.09%
  inhibition at 100 µM: 91.2 ± 0.09%
[2]
  IC50: 19.6 ± 1.1 µM
[3]; 12.5 µM
  percentage cytotoxicity on HCT-116: 34.64±0.48%
[3]; 25 µM
  percentage cytotoxicity on HCT-116: 51.93±0.58%
[3]; 50 µM
  percentage cytotoxicity on HCT-116: 86.90±0.28%
[3]; 100 µM
  percentage cytotoxicity on HCT-116: 94.83±0.87%
  inhibition at 100 µM: 94.83 ± 0.87%
[3]
  IC50: 20.3 ± 0.33 µM
[4]
  IC50: 78.3 ± 1.56 µM
[5]
  IC50: 181 ± 0.66 µM
[6]
  IC50: 0.142 µM
[7]
  IC50: 0.0359 µM
other
  melting point: 65 to 67 °C
[8]; 12.5 µM
  percentage cytotoxicity on A-549: 21.37±1.55%
[8]; 25 µM
  percentage cytotoxicity on A-549: 34.87±0.75%
[8]; 50 µM
  percentage cytotoxicity on A-549: 70.87±1.63%
[8]; 100 µM
  percentage cytotoxicity on A-549: 97.43±0.67%
[8]
  inhibition at 100 µM: 97.43 ± 0.67%
  IC50: 30.9 ± 0.65 µM

## CC(=O)O[C@@H]1[C@@H](OC(C)=O)[C@H](OCc2cn(-c3ccc(S(=O)(=O)NC4CCCCC4)cc3)nn2)OC[C@H]1OC(C)=O [Compound 9, N-cyclohexyl-4-(4-([2,3,4-tri-O-acetyl-β-D-xylopyranosyl]oxymethyl)-1H-1,2,3-triazol-1-yl)benzenesulfonamide]
[1]; 12.5 µM
  percentage cytotoxicity on HepG-2: 58.20±1.50%
[1]; 25 µM
  percentage cytotoxicity on HepG-2: 63.70±2.29%
[1]; 50 µM
  percentage cytotoxicity on HepG-2: 82.59±0.87%
[1]; 100 µM
  percentage cytotoxicity on HepG-2: 82.60±1.73%
[1]
  IC50: 8.39 ± 0.2 µM
[2]; 12.5 µM
  percentage cytotoxicity on MCF-7: 32.60±6.13%
[2]; 25 µM
  percentage cytotoxicity on MCF-7: 52.27±0.43%
[2]; 50 µM
  percentage cytotoxicity on MCF-7: 83.30±1.87%
[2]; 100 µM
  percentage cytotoxicity on MCF-7: 92.73±1.04%
  inhibition at 100 µM: 92.7 ± 1.04%
[2]
  IC50: 21.2 ± 2.45 µM
[3]; 12.5 µM
  percentage cytotoxicity on HCT-116: 34.51±0.44%
[3]; 25 µM
  percentage cytotoxicity on HCT-116: 53.50±0.93%
[3]; 50 µM
  percentage cytotoxicity on HCT-116: 67.00±0.12%
[3]; 100 µM
  percentage cytotoxicity on HCT-116: 75.70±0.48%
  inhibition at 100 µM: 75.7 ± 0.48%
[3]
  IC50: 23.6 ± 0.22 µM
[4]
  IC50: 87.22 ± 0.73 µM
[5]
  IC50: 0.38 ± 0.14 µM
[6]
  IC50: 0.04 µM
[7]
  IC50: 0.0032 µM
[9]
  %G0-G1: 52.69%
  %G2/M: 29.98%
  %S: 17.33%
[10]
  Apoptosis Early: 15.77%
  Apoptosis Late: 9.75%
  Apoptosis Total: 29.51
  Necrosis: 3.99%
[11]
  Bax: 271.45 pg/mL and 271.45 ± 0.25 pg/mL
  Bax/Bcl-2: 83.01
  increase in Bax levels compared to untreated control cells: 6.2 fold
[12]
  Bcl-2: 3.27 ng/mL and 3.27 ± 0.18 ng/mL
  Bcl-2 protein downregulated versus control: 2.6 times
[13]
  P53: 930.69 ± 0.55 pg/mL
  p53 protein level boosted versus control: 7.4 times
[8]; 12.5 µM
  percentage cytotoxicity on A-549: 43.13±0.73%
[8]; 25 µM
  percentage cytotoxicity on A-549: 47.60±0.32%
[8]; 50 µM
  percentage cytotoxicity on A-549: 75.53±1.16%
[8]; 100 µM
  percentage cytotoxicity on A-549: 90.00±0.95%
[8]
  inhibition at 100 µM: 90 ± 0.95%
  IC50: 19.8 ± 0.65 µM
